Consider five compounds from ChEMBL document CHEMBL1201862, “PubChem BioAssay data set” (2004).

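Cultured in 96-well plates, cells were exposed to test compound for 48 hours across five concentrations. Abbreviation: GI50, concentration required for 50% inhibition of growth.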 Active and inactive are the calls of the source. Rule as the data show it: active = GI50 up to about 1.1 µM and inactive = higher.

Test systems include UACC-62; TK-10; SF-539; SK-MEL-28; OVCAR-5; DU-145; SNB-19; OVCAR-8; EKVX; HL-60; T47D; NCI-H460; HCC 2998; SR; M14; OVCAR-3; SK-MEL-2; ACHN; A498.
Common to all, as to assay: NCI tumour cell line growth inhibition, 48 h

`O=C1CCCSCCCC(=O)CCCSCCC1`: the GI50 in the experiment with UACC-62, with TK-10, with SF-539, with SK-MEL-28, with OVCAR-5 and with DU-145 was > 100 µM (inactive) throughout. Further, the GI50 in the experiment on SNB-19, with OVCAR-8, in the experiment on EKVX, with HL-60, in the experiment with T47D and in the experiment with NCI-H460 was > 100 µM (inactive) throughout. For the same compound, the GI50 in the experiment with HCC 2998, in the experiment with SR, in the experiment with M14 and in the experiment with OVCAR-3 was > 100 µM (inactive) throughout.

Regarding `COc1cc(C2c3cc4c(cc3OC(NN=C(C)C)C2C)OCO4)cc(OC)c1O` (stereo not given), the GI50 in the experiment on UACC-62 was 19.2 µM (inactive); in the experiment on TK-10, 25.4 µM (inactive); with SF-539 it was 21.2 µM (inactive); in the experiment with SK-MEL-28, 11.5 µM (inactive); in the experiment with OVCAR-5, 64.4 µM (inactive); in the experiment with SK-MEL-2, 8.61 µM (inactive). Also, the GI50 with DU-145 is 24.1 µM (inactive); in the experiment on SNB-19, 85.5 µM (inactive); in the experiment with OVCAR-8 it was 27.5 µM (inactive); in the experiment with T47D, 69.2 µM (inactive); in the experiment on HCC 2998, 14.4 µM (inactive); in the experiment on SR, 1.44 µM (inactive). Also, the values for the GI50 in the experiment with M14 and in the experiment on OVCAR-3 were 22.6 µM (inactive) and 19.5 µM (inactive), respectively.

For `COc1ccc2c(c1)CCC1=CC3(CCC12C)SCCS3` (stereo not given), the GI50 was 4.14 µM (inactive) in the experiment on UACC-62; > 10 µM (inactive) in the experiment on TK-10; 5.24 µM (inactive) in the experiment on SK-MEL-28; 5.3 µM (inactive) in the experiment on ACHN; > 10 µM (inactive) in the experiment on DU-145; > 10 µM (inactive) in the experiment with SNB-19. The GI50 was > 10 µM (inactive) in the experiment on OVCAR-8; 2.81 µM (inactive) in the experiment with HL-60; 6.03 µM (inactive) with T47D; 7.8 µM (inactive) in the experiment with HCC 2998; 4.41 µM (inactive) in the experiment on SR; 4.46 µM (inactive) in the experiment with M14. Further, the GI50 with OVCAR-3 is 3.3 µM (inactive).

As for `COP(=O)(OC)[C@@](O)(c1ccccc1)[C@@H](O)[C@@H](O)c1ccccc1`, the GI50 in the experiment with UACC-62 was > 100 µM (inactive); with TK-10, > 100 µM (inactive); in the experiment with SF-539 it was 33.7 µM (inactive); in the experiment with SK-MEL-28, > 100 µM (inactive); with ACHN it was > 100 µM (inactive); in the experiment on OVCAR-5, > 100 µM (inactive). In addition, the GI50 in the experiment on SK-MEL-2, with DU-145, in the experiment with SNB-19, with OVCAR-8, in the experiment with EKVX and in the experiment on A498 was > 100 µM (inactive) in each case. Also, the GI50 in the experiment on HL-60 is > 100 µM (inactive); with T47D, > 100 µM (inactive); with NCI-H460, > 100 µM (inactive); in the experiment with SR, 0.531 µM (active); in the experiment with M14, > 100 µM (inactive); with OVCAR-3, > 100 µM (inactive).

With `C=C1C(=O)O[C@@H]2C=C(C)C3=CC(=O)[C@](C)(C[C@H](OC(=O)/C(C)=C\C)[C@@H]12)O3`, the GI50 with UACC-62 was 0.508 µM (active); with SF-539, 2.43 µM (inactive); with SK-MEL-28 it was 1.24 µM (inactive); in the experiment with ACHN, 0.489 µM (active); with OVCAR-5, 1.97 µM (inactive); in the experiment with SK-MEL-2, 1.7 µM (inactive). The GI50 with DU-145 is 4.1 µM (inactive); in the experiment with OVCAR-8, 0.51 µM (active); in the experiment with HL-60 it was 0.157 µM (active); in the experiment with T47D, 0.916 µM (active); in the experiment on NCI-H460 it was 2.18 µM (inactive); in the experiment with HCC 2998 it was 1.51 µM (inactive). In addition, the GI50 with SR is 0.201 µM (active); with M14 it was 0.644 µM (active).
